How the values were obtained:
[1] = target: human M4 receptor (Homo sapiens (Human), UniProt P08173); test: In vitro M4 functional assay (intracellular calcium, FLiPR Tetra); assay type: cell-based; details: for EC50: CHOK1 cells stably expressing human M4 receptor and Gα16, calcium flux; for Emax: relative efficacy to an EC100 concentration of acetylcholine, read-out: M4 % RE
How it was run: (§1)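 CHOK1 cells stably expressing human M4 or M2 with Gα16, loaded with Calcium 5 dye 45 min at 37° C in HBSS/HEPES/BSA/probenecid pH 7.4. Fluorescence read 5 min after compound; EC50 from ten-point half-log curves, duplicate wells, four-parameter fit; efficacy relative to EC100 acetylcholine.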

[2] = target: human M2 receptor (Homo sapiens (Human), UniProt P08172); test: In vitro M2 functional assay (intracellular calcium, FLiPR Tetra); assay type: cell-based; details: CHOK1 cells stably expressing human M2 receptor and Gα16; calcium flux; No Response = no significant response of calcium flux indicative of agonism
Sequence of human M2 receptor (P08172 whole entry): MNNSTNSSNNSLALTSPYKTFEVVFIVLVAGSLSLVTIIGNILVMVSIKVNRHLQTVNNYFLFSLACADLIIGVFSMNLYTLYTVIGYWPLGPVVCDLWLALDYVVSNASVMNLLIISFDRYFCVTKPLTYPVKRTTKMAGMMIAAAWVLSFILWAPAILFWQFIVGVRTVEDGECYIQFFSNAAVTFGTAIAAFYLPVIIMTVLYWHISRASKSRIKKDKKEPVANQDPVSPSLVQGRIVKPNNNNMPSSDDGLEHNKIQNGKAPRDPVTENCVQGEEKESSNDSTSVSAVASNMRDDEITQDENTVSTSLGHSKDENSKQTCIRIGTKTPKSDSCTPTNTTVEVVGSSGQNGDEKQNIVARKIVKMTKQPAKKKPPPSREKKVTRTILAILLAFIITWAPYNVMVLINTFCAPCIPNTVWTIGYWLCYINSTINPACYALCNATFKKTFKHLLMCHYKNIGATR
How it was run: as §1

Sequence of human M4 receptor (P08173 whole entry): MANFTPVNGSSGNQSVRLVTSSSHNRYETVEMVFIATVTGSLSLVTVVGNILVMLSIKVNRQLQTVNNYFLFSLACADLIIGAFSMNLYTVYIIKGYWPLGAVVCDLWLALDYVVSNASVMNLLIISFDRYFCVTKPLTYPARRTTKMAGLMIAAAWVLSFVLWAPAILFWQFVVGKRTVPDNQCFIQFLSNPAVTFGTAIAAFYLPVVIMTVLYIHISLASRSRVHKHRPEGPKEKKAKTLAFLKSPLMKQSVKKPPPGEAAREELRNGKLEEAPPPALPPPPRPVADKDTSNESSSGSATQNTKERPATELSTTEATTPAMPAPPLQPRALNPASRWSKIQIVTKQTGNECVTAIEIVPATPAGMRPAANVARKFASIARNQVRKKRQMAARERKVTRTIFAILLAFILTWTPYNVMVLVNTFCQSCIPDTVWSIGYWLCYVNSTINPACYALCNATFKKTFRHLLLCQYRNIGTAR

For `CCOC(=O)N1CCC[C@H](N2CCC(n3cccn3)CC2)CC1` [Example 81, Ethyl (4S)-4-[4-(1H-pyrazol-1-yl)piperidin-1-yl]azepane-1-carboxylate], the EC50 [1] was 85 nM, the Emax [1] was 83% and the “M2 EC50” value [2] was “No response”.
With `CCOC(=O)N1CCC[C@H](N2CCC(c3nccn3C)CC2)CC1` [Example 83, Ethyl (4S)-4-[4-(1-methyl-1H-imidazol-2-yl)piperidin-1-yl]azepane-1-carboxylate] the EC50 [1] was 1500 nM, the Emax [1] was 55% and the “M2 EC50” value [2] was “No response”.
With `CCOC(=O)N1CCC[C@H](N2CCC(c3cccnc3OC)CC2)CC1` [Example 85, Ethyl (4S)-4-[4-(2-methoxypyridin-3-yl)piperidin-1-yl]azepane-1-carboxylate] the EC50 [1] was 26 nM, the Emax [1] was 91% and the “M2 EC50” value [2] was “No response”.
`CCOC(=O)N1CCC[C@@H](N2CCC(c3cccnc3OC)CC2)CC1` [Example 86, Ethyl (4R)-4-[4-(2-methoxypyridin-3-yl)piperidin-1-yl]azepane-1-carboxylate] was tested, and the EC50 [1] was 310 nM, the Emax [1] was 67% and the “M2 EC50” value [2] was “No response”.
